Patent US12419917B2, “Compositions and methods for treatment of conditions using fractionated honey” (NDAL MFG INC, priority 2021, dated 2025)

Tested on: SARS-CoV-2
Format: cell-based
Settings: 1-hour contact at 22 ± 2° C., cleanser 100%, ethanol 70%

Structure (SMILES): CCO [Ethanol]
- LRV (log reduction value) compared to the virus control (<1 log reduction not considered active): >4.3
- Virus Titer (virus control titer 5.0, limit of detection 0.7): <0.7 log10 CCID50 of virus per 0.1 mL
